Assays:
[1] = biological target: T1, TGR5 (Homo sapiens, UniProt Q8TDU6); experiment: TGR5 cAMP assay in CHO cells transfected with TGR5 (cAMP Hunter eXpress, Discover X); assay type: cell-based; settings: for TGR5 Efficacy (%) (10 µM) / TGR5 Efficacy (%) (1 µM): % vs INT-767 10 µM as 100%
T1 construct: host or cells: CHO cells
T1 sequence (Q8TDU6 1-330): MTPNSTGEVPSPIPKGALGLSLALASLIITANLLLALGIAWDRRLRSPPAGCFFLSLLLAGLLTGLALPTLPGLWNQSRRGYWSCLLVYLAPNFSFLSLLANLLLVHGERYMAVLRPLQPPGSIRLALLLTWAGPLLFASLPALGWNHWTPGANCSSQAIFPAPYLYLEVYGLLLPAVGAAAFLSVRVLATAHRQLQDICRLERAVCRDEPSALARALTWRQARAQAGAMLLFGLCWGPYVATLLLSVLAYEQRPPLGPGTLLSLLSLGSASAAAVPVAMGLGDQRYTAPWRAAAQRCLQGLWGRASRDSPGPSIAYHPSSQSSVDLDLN
Procedure: TGR5 agonist activity was evaluated by transfecting CHO cells with TGR5 using the Discover X expression kit (cAMP Hunter eXpress GPCR Assay, Discover X Fremont, CA). Cells were incubated with test compounds for 0.5 h, and intracellular cAMP levels were measured using the multi-mode microplate reader.
(§1) TGR5 agonist activity was evaluated by transfecting CHO cells with TGR5 using the Discover X expression kit (cAMP Hunter eXpress Assay Kit, Discover X Fremont, CA, USA). Cells were incubated with the test compounds for 0.5 h, and intracellular cAMP levels were measured using Multi-Mode Microplate Reader (FlexStation 3, Molecular Devices Inc., San Jose, CA, USA).
Each compound was tested at concentrations of 10, 1, or 0.1 µM in duplicate (n = 2), with the average value shown.
S4. In vitro, in vivo assay, and selectvity. […]
In vitro TGR5 agonist assay protocol
as §1
Each compound was tested at concentrations of 10, 1, or 0.1 µM in duplicate (n=2), with the […]
parameter logistic equation, Y = min + (max - min)/(1 + 10^(n * (log10(EC50) - log10(conc)))), in […]

[2] = biological target: T2, FXR (Homo sapiens, UniProt Q96RI1); experiment: CHO cell-based FXR luciferase reporter assay (Indigo Biosciences); settings: for FXR Efficacy (%) (1 µM) / FXR Efficacy (%) (0.1 µM) / FXR Efficacy (%) (10 µM): % vs OCA 1 µM as 100%
T2 construct: host or cells: CHO cells
T2 sequence (Q96RI1 1-486): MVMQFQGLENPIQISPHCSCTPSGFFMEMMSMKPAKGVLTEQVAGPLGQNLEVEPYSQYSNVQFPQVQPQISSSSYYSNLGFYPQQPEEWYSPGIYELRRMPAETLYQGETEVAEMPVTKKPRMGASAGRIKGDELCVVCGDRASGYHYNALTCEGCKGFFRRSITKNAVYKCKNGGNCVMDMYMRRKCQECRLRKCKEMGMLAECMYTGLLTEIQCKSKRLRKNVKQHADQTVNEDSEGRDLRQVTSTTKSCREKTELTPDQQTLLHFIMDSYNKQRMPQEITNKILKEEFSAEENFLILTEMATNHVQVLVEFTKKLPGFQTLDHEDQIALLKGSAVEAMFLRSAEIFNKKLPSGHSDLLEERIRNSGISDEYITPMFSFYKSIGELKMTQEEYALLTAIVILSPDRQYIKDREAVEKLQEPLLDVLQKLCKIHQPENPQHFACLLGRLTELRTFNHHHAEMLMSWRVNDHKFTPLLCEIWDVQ
Procedure: To evaluate direct agonist activities against FXR, test compounds were evaluated using a CHO cell-based FXR assay by Indigo Biosciences (State College, PA), in which cells were transfected with an FXR luciferase reporter system.
To directly evaluate the in vitro agonist activity towards FXR, test compounds were evaluated in CHO cells transfected with FXR responsive luciferase reporter (Nuclear Receptor & In Vitro Toxicology Solutions, Indigo Biosciences, State College, PA, USA). […] Each compound was tested in duplicate, and the average value was reported[35],[36].
(§2) The cell recovery medium (CRM, Human Farnesoid X Receptor (NR1H4, FXR reporter assay system, Indigo Biosciences, State College, PA, USA) and compound screening medium (CSM, Human Farnesoid X Receptor (NR1H4, FXR reporter assay system, Indigo Biosciences, State College, PA, USA) were removed from the freezer and thawed in a water bath at 37 °C. Test compounds were dissolved in dimethyl sulfoxide (DMSO, FUJIFILM Wako Pure Chemical Corporation, Osaka city, Osaka, Japan), and the treatment medium was prepared and diluted with CSM to achieve a final concentration of 0.2% total DMSO. The reporter cells were thawed by transferring 3.3 mL CRM at 37 °C into tubes of frozen cells. The tube containing reporter cells was recapped, and it was immediately place in a 37 °C water bath for 5 min. The reporter cells were gently inverted several times, and 100 µL cell suspension was dispensed into each well. One hundred microliters of treatment media was added into wells. Subsequently, the assay plate was kept at 37 °C, and it was incubated with 5% CO2 for 22 h. To prepare luciferase detection reagent (LDR), the detection substrate was gently mixed with detection buffer, media contents were removed from each well, and 100 µL LDR was added to each well of the assay plate. The assay plate was allowed to rest at room temperature for 5 min, and luminescence was quantified using the Multi-Mode Microplate Reader (FlexStation 3, Molecular Devices Inc., San Jose, CA, USA)[36].
S4. In vitro, in vivo assay, and selectvity.
To directly evaluate the in vitro agonist activity towards FXR, test compounds were evaluated in CHO cells transfected with FXR responsive luciferase reporter (Nuclear Receptor & In Vitro Toxicology Solutions, Indigo Biosciences, State College, PA, USA). Cells were incubated with […]
(FlexStation 3, Molecular Devices Inc., San Jose, CA, USA). Efficacies are reported relative to […]
reporter on of 1 µM. Each compound was tested in duplicate, and the average value was […]
as §2, with “sulfoxide (DMSO ,” for “sulfoxide (DMSO,”, “Osaka, Jap an),” for “Osaka, Japan),”, “a 37°C” for “a 37 °C”, “5% CO 2” for “5% CO2”, “using […]” for “using the Multi-Mode Microplate Reader (FlexStation 3, Molecular Devices Inc., San Jose, CA, USA)[36].”

Row | SMILES | TGR5 agonist activity (in words) [1] | TGR5 Efficacy (%) (10 µM) [1] | FXR Efficacy (%) (1 µM) [2] | TGR5 Efficacy (%) (1 µM) [1] | FXR Efficacy (%) (0.1 µM) [2] | FXR Efficacy (%) (10 µM) [2] | FXR agonist activity (in words) [2]
1 | Cc1cnccc1C(=O)N(Cc1ccc(-c2ccc(N(C)C)cc2)cc1)c1ccc(F)cc1C [Compound 13e] | strong TGR5 agonist activity | 87.5 | 2.0 | – | – | – | –
2 | Cc1cnccc1C(=O)N(Cc1ccc(-c2ccc(N(C)C)cc2)cc1)c1cc(Cl)cc(N2CCC2)c1 [Compound 13n] | – | 10.2 | 20.2 | – | – | – | –
3 | CN(C)c1ccc(-c2ccc(CN(C(=O)c3ccnnc3)c3cc(Cl)cc(Cl)c3)cc2)cc1 [Compound 13ab] | did not have any activity against either FXR or TGR5 | -12 | 0.5 | – | – | – | did not have any activity against either FXR or TGR5
4 | CN(C)c1ccc(-c2ccc(CN(C(=O)c3ccccc3Cl)c3cc(Cl)cc(Cl)c3)cc2)cc1 [Compound 13ac] | – | 0.2 | 84.3 | – | – | – | strong FXR activities
5 | COC(=O)/C=C/c1ccc(C)c(N(Cc2ccc(-c3ccc(N(C)C)cc3)cc2)C(=O)c2ccncc2C)c1 [Compound 13h] | – | 0.2 | 25.3 | – | – | – | –
6 | CN(C)c1ccc(-c2ccc(CN(C(=O)c3ccncc3C3CC3)c3cc(Cl)cc(Cl)c3)cc2)cc1 [Compound 13w] | – | 73.1 | 22.7 | – | – | – | –
7 | Cc1cc(F)ccc1N(Cc1ccc(-c2ccc(N(C)C)cc2)cc1)C(=O)c1cccnc1 [Compound 13g] | – | 0.8 | 1.2 | – | – | – | –
8 | Cc1cnccc1C(=O)N(Cc1ccc(-c2ccc(N(C)C)cc2)cc1)c1cc(Cl)cc(Cl)c1C [Compound 13r] | good potency against TGR5 | 91.9 | 8.6 | – | – | – | –
9 | COc1ccc(C(=O)N(Cc2ccc(-c3ccc(N(C)C)cc3)cc2)c2cc(Cl)cc(Cl)c2)c(Cl)c1 [Compound 13ag] | significantly low potency against TGR5 | 1.1 | 136.5 | – | – | – | strong FXR activities
10 | COC(=O)/C=C/c1cccc(N(Cc2ccc(-c3ccc(N(C)C)cc3)cc2)C(=O)c2ccncc2C)c1C [Compound 13i] | weak FXR/TGR5 dual agonist activity | 47.2 | 32.1 | – | – | – | weak FXR/TGR5 dual agonist activity
11 | COc1cnccc1C(=O)N(Cc1ccc(-c2ccc(N(C)C)cc2)cc1)c1cc(Cl)cc(Cl)c1 [Compound 13aa] | weak dual agonist activity | 21.5 | 68.6 | – | – | – | weak dual agonist activity
12 | CCc1cnccc1C(=O)N(Cc1ccc(-c2ccc(N(C)C)cc2)cc1)c1cc(Cl)cc(Cl)c1 [Compound 13v] | – | 65.3 | 21.3 | – | – | – | –
13 | Cc1cnccc1C(=O)N(Cc1ccc(-c2ccc(N(C)C)cc2)cc1)c1cc(Cl)cc(Br)c1 [Compound 13k] | dual potencies against both FXR and TGR5 | 47.4 | 75.9 | – | – | – | dual potencies against both FXR and TGR5
14 | Cc1cc(C)cc(N(Cc2ccc(-c3ccc(N(C)C)cc3)cc2)C(=O)c2ccncc2C)c1 [Compound 13l] | – | 48.5 | 37.6 | – | – | – | –

Second part, led by results:

Row | TGR5 agonist activity (in words) [1] | TGR5 Efficacy (%) (10 µM) [1] | FXR Efficacy (%) (1 µM) [2] | TGR5 Efficacy (%) (1 µM) [1] | FXR Efficacy (%) (0.1 µM) [2] | FXR Efficacy (%) (10 µM) [2] | SMILES | FXR agonist activity (in words) [2]
15 | – | -5.2 | 51.1 | – | – | – | COc1ccc(C2C3CCC2CC(CN(C(=O)c2ccncc2C)c2cc(Cl)cc(Cl)c2)C3)cc1C (centres unmarked) [Compound 20g] | –
16 | – | 71.1 | 71.7 | 21.5 | 13.5 | – | CCc1cnccc1C(=O)N(CC12CCC(c3ccc(OC)c(C)c3)(CC1)CC2)c1cc(F)cc(Cl)c1 [Compound 20j] | –
17 | weak TGR5 agonist | 28.8 | 55.2 | – | – | 129.6 | COc1ccc([C@H]2CC[C@H](CN(C(=O)c3ccncc3C)c3cc(Cl)cc(Cl)c3)CC2)cc1C [Compound 20d] | partial FXR agonists
18 | – | – | 76.2 | 12.1 | 69.2 | – | COc1ncc(C23CCC(CN(C(=O)c4ccncc4C)c4cc(Cl)cc(Cl)c4)(CC2)CC3)cc1C [Compound 20u] | –
19 | – | 22.3 | 52.2 | – | – | – | Cc1cnccc1C(=O)N(C[C@H]1CC[C@H](c2ccccc2)CC1)c1cc(Cl)cc(Cl)c1 [Compound 20a] | –
20 | most potent TGR5 activity | – | 72.6 | 57.1 | 28.0 | – | Cc1cnccc1C(=O)N(CC12CCC(c3ccc4c(c3)OCCO4)(CC1)CC2)c1cc(Cl)cc(Cl)c1 [Compound 20r] | –
21 | – | 5.7 | 51.7 | – | – | – | Cc1cccc([C@H]2CC[C@H](CN(C(=O)c3ccncc3C)c3cc(Cl)cc(Cl)c3)CC2)c1 [Compound 20c] | –
22 | weak TGR5 agonist | 33.9 | 69.1 | – | – | 72.6 | COc1ccc([C@@H]2CC[C@@H](CN(C(=O)c3ccncc3C)c3cc(Cl)cc(Cl)c3)C(C)C2)cc1C (some centres unmarked) [Compound 20e] | partial FXR agonists
